Measurements published in PubChem BioAssay (NCI).
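Results reflect a 48-hour exposure of cells in 96-well plates to compound at five concentrations. Here, GI50 denotes the concentration required for 50% inhibition of growth. TGI: concentration producing complete growth inhibition.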

Tests used:
Experiment in all cases: NCI tumour cell line growth inhibition, 48 h
[1] = system: A549 NSCLC
[2] = system: SK-MEL-2 melanoma
[3] = system: HCT-116 colon
[4] = system: SK-MEL-5 melanoma
[5] = system: SN12C renal
[6] = system: UACC-257 melanoma
[7] = system: UACC-62 melanoma
[8] = system: MCF7 breast
[9] = system: OVCAR-4 ovarian
[10] = system: IGROV1 ovarian

Row | SMILES | GI50 [1] | TGI [1] | GI50 [2] | TGI [2] | GI50 [3] | TGI [3] | GI50 [4] | TGI [4] | GI50 [5] | TGI [5] | GI50 [6] | TGI [6] | GI50 [7] | TGI [7] | GI50 [8] | TGI [8] | GI50 [9] | TGI [9] | GI50 [10] | TGI [10]
1 | O=C(O[C@H]1CN[C@H](C#Cc2cc3ncnc(Nc4ccc(Cc5ccccc5)cc4)c3s2)C1)N1CCOCC1 | 4.86 µM | > 25 µM | 5.41 µM | 14.4 µM | 4.03 µM | 8.16 µM | 4.23 µM | 8.83 µM | 4.08 µM | > 25 µM | 5.46 µM | > 22.1 µM | 6.25 µM | > 23.5 µM | 5.63 µM | > 20.6 µM | 6.22 µM | > 25 µM | 2.45 µM | > 20.1 µM
2 | COC(=O)c1c2c(c[n+]([O-])c1C)C(=O)C(NCc1ccccc1)=CC2=O | 1.12 µM | 3.61 µM | 1.19 µM | 3.35 µM | 0.269 µM | 0.924 µM | 0.175 µM | 0.322 µM | 0.318 µM | 1.22 µM | 0.257 µM | 0.734 µM | 0.334 µM | 1.06 µM | 0.224 µM | 0.726 µM | 0.232 µM | 0.835 µM | 0.368 µM | 1.49 µM
3 | O=C1OCC2=C1C(c1ccccc1)c1cc3c(cc1N2CCO)CCC3 (stereo not given) | 0.152 µM | > 25 µM | 0.0901 µM | > 8.97 µM | 0.0857 µM | 5.42 µM | 0.0762 µM | 5.41 µM | 0.172 µM | > 25 µM | 0.0862 µM | > 25 µM | 0.111 µM | > 25 µM | 0.0841 µM | > 25 µM | 0.127 µM | > 25 µM | 0.0799 µM | 0.774 µM
4 | Nc1ccccc1C#Cc1ccccc1C#Cc1ccccc1N | 22.1 µM | > 100 µM | 11.3 µM | 30.2 µM | 6.32 µM | 21.5 µM | 9.09 µM | 22.9 µM | 11.4 µM | 24.5 µM | 30.1 µM | > 100 µM | 6.93 µM | 21.2 µM | 12.4 µM | > 100 µM | 23.3 µM | 80.9 µM | 10.2 µM | 30.4 µM
5 | COc1cccc(C2=NN(C(C)=O)C(c3cc(OC)c(OC)c(OC)c3)C2)c1 (stereo not given) | 6.15 µM | > 100 µM | 23.8 µM | > 100 µM | 2.59 µM | > 100 µM | 0.829 µM | 10.2 µM | 5.69 µM | > 100 µM | > 100 µM | > 100 µM | 3.85 µM | > 100 µM | 0.529 µM | > 32.3 µM | 6.88 µM | > 100 µM | 4.08 µM | > 72.1 µM
6 | O=[N+]([O-])c1ccccc1S(=O)(=O)c1ccccc1[N+](=O)[O-] | – | > 56.2 µM | – | > 100 µM | – | > 100 µM | – | > 56.2 µM | – | > 100 µM | – | > 100 µM | – | > 100 µM | – | > 100 µM | – | > 100 µM | – | > 100 µM
7 | O=C(/C=C/c1ccccc1Cl)c1ccc(O)cc1 | 7.33 µM | 25.1 µM | 15 µM | 31.2 µM | 2.98 µM | 10.8 µM | 9.57 µM | 23.4 µM | 8.51 µM | 33.1 µM | 9.79 µM | 22.5 µM | 7.88 µM | 21.8 µM | 2.45 µM | 7.54 µM | 10.6 µM | 24.9 µM | 2.25 µM | 5.25 µM
8 | Clc1ccc(-c2nc(-c3c[nH]c4ncccc34)cs2)cc1 | > 100 µM | > 100 µM | > 100 µM | > 100 µM | 52.9 µM | > 100 µM | > 100 µM | > 100 µM | > 100 µM | > 100 µM | > 100 µM | > 100 µM | > 100 µM | > 100 µM | > 100 µM | > 100 µM | 65.8 µM | > 100 µM | 4.78 µM | > 100 µM
9 | NC(Cc1cc(Br)c(O)c(Br)c1)C(=O)O (stereo not given) | – | > 100 µM | – | > 100 µM | – | > 100 µM | – | > 100 µM | – | > 100 µM | – | > 100 µM | – | > 100 µM | – | > 100 µM | – | > 100 µM | – | > 100 µM
10 | COc1cc(C2=Nc3c/c(=C\c4c(O)[nH]c5ccc(Cl)cc45)ccc3=N2)cc(OC)c1OC | 2.87 µM | 10.7 µM | 9.01 µM | 30.2 µM | 1.56 µM | 3.54 µM | 1.58 µM | 3.55 µM | 2.11 µM | 6.5 µM | 1.96 µM | 4.77 µM | 1.94 µM | 7.97 µM | 1.43 µM | 3.56 µM | 2.18 µM | 7.9 µM | 5.46 µM | 20.3 µM
11 | S=C(Nc1ccc(-c2nc3ccccc3s2)cc1)Nc1ccccn1 | 27 µM | > 100 µM | 22.7 µM | 50.3 µM | 21.5 µM | 55.5 µM | 17.2 µM | 36.2 µM | 22.9 µM | 63.6 µM | 31.8 µM | > 72 µM | 21.4 µM | 57.3 µM | > 100 µM | > 100 µM | 37 µM | > 100 µM | 29.8 µM | > 78.1 µM
12 | N#CC(NC12CC3CC(CC(C3)C1)C2)c1ccccc1 (stereo not given) | – | > 100 µM | – | > 100 µM | – | > 100 µM | – | > 100 µM | – | > 100 µM | – | > 100 µM | – | > 100 µM | – | > 100 µM | – | > 100 µM | – | > 100 µM
13 | Cc1nc(NC(=O)COc2cccc(/C=C3\COc4ccccc4C3=O)c2)sc1C | 3.7 µM | 12.4 µM | 1.62 µM | 3.17 µM | 1.53 µM | 3.04 µM | 1.86 µM | 3.81 µM | 2.01 µM | 4.63 µM | 2.88 µM | 8.13 µM | 2.05 µM | 4.51 µM | 0.665 µM | 2.83 µM | 4.02 µM | 13.9 µM | 0.43 µM | 0.902 µM
14 | C[C@@]12CCC[C@@](C)(C(=O)O)C1CC[C@]13C=C(CO)[C@](O)(CCC12)C3 (stereo not given in full) | > 100 µM | > 100 µM | > 100 µM | > 100 µM | > 100 µM | > 100 µM | > 100 µM | > 100 µM | > 100 µM | > 100 µM | > 100 µM | > 100 µM | > 100 µM | > 100 µM | > 100 µM | > 100 µM | > 100 µM | > 100 µM | > 100 µM | > 100 µM
